Assay results from patent US20210261512A1, “NOVEL COMPOUNDS” (INFLAZOME LIMITED, priority 2018, published 2021).
Each block holds one molecule with its values, some of them ahead of it.

Target: NLRP3 (Homo sapiens, UniProt Q96P20)
Test: THP-1 cells pyroptosis assay
Type: cell-based
Design: Seed THP-1 cells (25,000 cells/well) containing 1.0 μg/ml LPS; host or cells: THP-1
Conditions: LPS 1.0 μg/ml, nigericin 5 μM, resazurin readout, 10 μM top dose (Example 2: top dose of 30 μM)
Experimental: THP-1 cells (ATCC #TIB-202) were grown in RPMI containing L-glutamine (Gibco #11835) supplemented with imM sodium pyruvate (Sigma #S8636) and penicillin (100 units/ml)/streptomycin (0.1 mg/ml) (Sigma #P4333) in 10% Fetal Bovine Serum (FBS) (Sigma #F0804). The cells were routinely passaged and grown to confluency (˜10^6 cells/ml). On the day of the experiment, THP-1 cells were harvested and resuspended into RPMI medium (without FBS). The cells were then counted and viability (>90%) checked by Trypan blue (Sigma #T8154). Appropriate dilutions were made to give a concentration of 625,000 cells/ml. To this diluted cell solution was added LPS (Sigma #L4524) to give a 1 μg/ml Final Assay Concentration (FAC). 40 μl of the final preparation was aliquoted into each well of a 96-well plate. The plate thus prepared was used for compound screening.
The following method step-by-step assay was followed for compound screening. • 1. Seed THP-1 cells (25,000 cells/well) containing 1.0 μg/ml LPS in 40 μl of RPMI medium (without FBS) in 96-well, black walled, clear bottom cell culture plates coated with poly-D-lysine (VWR #734-0317) • 2. Add 5 μl compound (8 points four-fold dilution or 8 points half-log dilution, with 10 μM top dose, unless stated otherwise) or vehicle (DMSO 0.1% FAC) to the appropriate wells • 3. Incubate for 3 hrs at 37° C. and 5% CO2 • 4. Add 5 μl nigericin (Sigma #N7143) (FAC 5 μM) to all wells • 5. Incubate for 1 hr at 37° C. and 5% CO2 • 6. At the end of the incubation period, spin plates at 300×g for 3 mins and remove supernatant • 7. Then add 50 μl of resazurin (Sigma #R^7017) (FAC 100 μM resazurin in RPMI medium without FBS) and incubate plates for a further 1-2 hrs at 37° C. and 5% CO2 • 8. Plates were read in an Envision reader at Ex 560 nm and Em 590 nm • 9. IC50 data is fitted to a non-linear regression equation (log inhibitor vs response-variable slope 4-parameters)

Chain of NLRP3 (Q96P20 whole entry): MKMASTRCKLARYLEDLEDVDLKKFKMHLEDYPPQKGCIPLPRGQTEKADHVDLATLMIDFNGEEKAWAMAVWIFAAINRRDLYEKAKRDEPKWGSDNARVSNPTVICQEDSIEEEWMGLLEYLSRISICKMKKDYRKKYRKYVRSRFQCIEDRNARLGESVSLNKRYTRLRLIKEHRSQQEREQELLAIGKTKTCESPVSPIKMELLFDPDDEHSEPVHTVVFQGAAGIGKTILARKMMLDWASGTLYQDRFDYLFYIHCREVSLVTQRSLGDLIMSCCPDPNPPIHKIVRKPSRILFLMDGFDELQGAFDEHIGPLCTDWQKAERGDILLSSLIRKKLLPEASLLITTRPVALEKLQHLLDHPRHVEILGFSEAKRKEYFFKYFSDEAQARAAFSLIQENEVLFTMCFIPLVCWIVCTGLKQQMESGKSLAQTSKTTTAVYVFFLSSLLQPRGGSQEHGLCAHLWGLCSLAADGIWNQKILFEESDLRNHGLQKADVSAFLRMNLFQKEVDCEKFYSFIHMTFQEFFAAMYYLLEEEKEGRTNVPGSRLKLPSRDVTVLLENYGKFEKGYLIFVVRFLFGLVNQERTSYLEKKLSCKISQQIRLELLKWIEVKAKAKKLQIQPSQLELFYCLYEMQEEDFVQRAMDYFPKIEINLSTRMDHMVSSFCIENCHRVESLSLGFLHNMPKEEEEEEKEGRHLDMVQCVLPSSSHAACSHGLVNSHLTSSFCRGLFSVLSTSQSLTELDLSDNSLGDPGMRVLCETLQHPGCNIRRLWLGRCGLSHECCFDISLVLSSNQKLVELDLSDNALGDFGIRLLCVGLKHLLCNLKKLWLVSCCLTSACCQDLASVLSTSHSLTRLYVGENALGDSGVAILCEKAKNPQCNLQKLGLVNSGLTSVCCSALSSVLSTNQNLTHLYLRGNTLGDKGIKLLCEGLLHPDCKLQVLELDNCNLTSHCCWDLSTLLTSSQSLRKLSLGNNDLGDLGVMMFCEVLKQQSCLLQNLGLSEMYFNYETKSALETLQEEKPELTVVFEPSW

- IC50: ≤ 5 µM
Structure (SMILES): NC(=O)c1ccccc1S(=O)(=O)c1n[nH]c(Nc2c3c(cc4c2CCC4)CCC3)n1 [Example 311, 2-((5-((1,2,3,5,6,7-hexahydro-s-indacen-4-yl)amino)-1H-1,2,4-triazol-3-yl)sulfonyl)benzamide]

- IC50: ≤ 5 µM
Structure (SMILES): O=S(=O)(NC1CCCNC1)c1nnc(Nc2c3c(cc4c2CCC4)CCC3)[nH]1 (centres unmarked) [Example 112, 5-((1,2,3,5,6,7-hexahydro-s-indacen-4-yl)amino)-N-(piperidin-3-yl)-4H-1,2,4-triazole-3-sulfonamide]

- IC50: ≤ 5 µM
Structure (SMILES): CN(C)CCN(C)CCCS(=O)(=O)c1nnc(Nc2c3c(cc4c2CCC4)CCC3)[nH]1 [Example 52, N^1-(3-((5-((1,2,3,5,6,7-hexahydro-s-indacen-4-yl)amino)-4H-1,2,4-triazol-3-yl)sulfonyl)propyl)-N^1,N^2,N^2-trimethylethane-1,2-diamine]

- IC50: ≤ 10 µM
Structure (SMILES): O=S(=O)(c1nnc(Nc2c3c(cc4c2CCC4)CCC3)[nH]1)N1CCC2(CC1)CNC2 [Example 287, 5-((2,7-diazaspiro[35]nonan-7-yl)sulfonyl)-N-(1,2,3,5,6,7-hexahydro-s-indacen-4-yl)-4H-1,2,4-triazol-3-amine]

- IC50: ≤ 5 µM
Structure (SMILES): O=S(=O)(CCCN1CCOCC1)c1nnc(Nc2c3c(cc4c2CCC4)CCC3)[nH]1 [Example 50, N-(1,2,3,5,6,7-hexahydro-s-indacen-4-yl)-5-((3-morpholinopropyl)sulfonyl)-4H-1,2,4-triazol-3-amine]

- IC50: ≤ 0.5 µM
Structure (SMILES): CCN1CCCC12CCN(S(=O)(=O)c1nnc(Nc3c4c(cc5c3CCC5)CCC4)[nH]1)CC2 [Example 256, 5-((1-ethyl-1,8-diazaspiro[4.5]decan-8-yl)sulfonyl)-N-(1,2,3,5,6,7-hexahydro-s-indacen-4-yl)-4H-1,2,4-triazol-3-amine]

- IC50: ≤ 10 µM
Structure (SMILES): O=S(=O)(CC1CCCN1)c1nnc(Nc2c3c(cc4c2CCC4)CCC3)[nH]1 (centres unmarked) [Example 62, N-(1,2,3,5,6,7-hexahydro-s-indacen-4-yl)-3-((pyrrolidin-2-ylmethyl)sulfonyl)-1H-1,2,4-triazol-5-amine]

- IC50: ≤ 10 µM
Structure (SMILES): O=S(=O)(Cc1ccncc1)c1nnc(Nc2c3c(cc4c2CCC4)CCC3)[nH]1 [Example 72, N-(1,2,3,5,6,7-hexahydro-s-indacen-4-yl)-3-((pyridin-4-ylmethyl)sulfonyl)-1H-1,2,4-triazol-5-amine]

- IC50: ≤ 10 µM
Structure (SMILES): CC(C)(O)CNS(=O)(=O)c1nnc(Nc2c3c(cc4c2CCC4)CCC3)[nH]1 [Example 272, 5-((1,2,3,5,6,7-hexahydro-s-indacen-4-yl)amino)-N-(2-hydroxy-2-methylpropyl)-4H-1,2,4-triazole-3-sulfonamide]

- IC50: ≤ 5 µM
Structure (SMILES): CC(C)c1cc(F)cc(-c2ccnc(OC3CCN(C)CC3)c2)c1Nc1nnc(S(C)(=O)=O)[nH]1 [Example 369, N-(4-fluoro-2-isopropyl-6-(2-((1-methylpiperidin-4-yl)oxy)pyridin-4-yl)phenyl)-5-(methylsulfonyl)-4H-1,2,4-triazol-3-amine]

- IC50: ≤ 5 µM
Structure (SMILES): Cn1cc(C#N)c(S(=O)(=O)c2nnc(Nc3c4c(cc5c3CCC5)CCC4)[nH]2)n1 [Example 351, 3-((5-((1,2,3,5,6,7-hexahydro-s-indacen-4-yl)amino)-4H-1,2,4-triazol-3-yl)sulfonyl)-1-methyl-1H-pyrazole-4-carbonitrile]

The next lines start with the molecule.

Structure (SMILES): CC(C)c1cc(F)cc(C(C)C)c1Nc1nnc(S(=O)(=O)c2ccccc2)[nH]1 [Example 42, N-(4-fluoro-2,6-diisopropylphenyl)-3-(phenylsulfonyl)-1H-1,2,4-triazol-5-amine]
- IC50: ≤ 10 µM

Structure (SMILES): O=S(=O)(c1cccc(OC(F)(F)F)c1)c1nnc(Nc2c3c(cc4c2CCC4)CCC3)[nH]1 [Example 367, N-(1,2,3,5,6,7-hexahydro-s-indacen-4-yl)-5-((3-(trifluoromethoxy)phenyl)-sulfonyl)-4H-1,2,4-triazol-3-amine]
- IC50: ≤ 5 µM

Structure (SMILES): COc1cc(-c2ccc3c(c2Nc2nnc(S(C)(=O)=O)[nH]2)CCC3)ccn1 [Example 361, N-(5-(2-methoxypyridin-4-yl)-2,3-dihydro-1H-inden-4-yl)-5-(methylsulfonyl)-4H-1,2,4-triazol-3-amine]
- IC50: ≤ 10 µM

Structure (SMILES): O=S(=O)(c1nnc(Nc2c3c(cc4c2CCC4)CCC3)[nH]1)C1CNC1 [Example 21, 5-(azetidin-3-ylsulfonyl)-N-(1,2,3,5,6,7-hexahydro-s-indacen-4-yl)-4H-1,2,4-triazol-3-amine]
- IC50: ≤ 10 µM

Structure (SMILES): O=S(=O)(c1nnc(Nc2c3c(cc4c2CCC4)CCC3)[nH]1)N1CC(c2ccccn2)C1 [Example 285, N-(1,2,3,5,6,7-hexahydro-s-indacen-4-yl)-5-((3-(pyridin-2-yl)azetidin-1-yl)sulfonyl)-4H-1,2,4-triazol-3-amine]
- IC50: ≤ 5 µM

Structure (SMILES): Cc1noc(CS(=O)(=O)c2nnc(Nc3c4c(cc5c3CCC5)CCC4)[nH]2)n1 [Example 70, N-(1,2,3,5,6,7-hexahydro-s-indacen-4-yl)-3-(((3-methyl-1,2,4-oxadiazol-5-yl)methyl)sulfonyl)-1H-1,2,4-triazol-5-amine]
- IC50: ≤ 5 µM

Structure (SMILES): CN1C[C@H]2[C@@H]1CCN2S(=O)(=O)c1nnc(Nc2c3c(cc4c2CCC4)CCC3)[nH]1 [Example 269, N-(1,2,3,5,6,7-hexahydro-s-indacen-4-yl)-5-(((1S,5S)-6-methyl-2,6-diazabicyclo[3.2.0]heptan-2-yl)sulfonyl)-4H-1,2,4-triazol-3-amine]
- IC50: ≤ 10 µM

Structure (SMILES): CN1CCCC(COc2cc(-c3ccc4c(c3Nc3nnc(S(C)(=O)=O)[nH]3)CCC4)ccn2)C1 (centres unmarked) [Example 359, N-(5-(2-((1-methylpiperidin-3-yl)methoxy)pyridin-4-yl)-2,3-dihydro-1H-inden-4-yl)-5-(methylsulfonyl)-4H-1,2,4-triazol-3-amine]
- IC50: ≤ 5 µM

Structure (SMILES): O=S(=O)(c1nnc(Nc2c3c(cc4c2CCC4)CCC3)[nH]1)C1CCCC1 [Example 64, 3-(Cyclopentylsulfonyl)-N-(1,2,3,5,6,7-hexahydro-s-indacen-4-yl)-1H-1,2,4-triazol-5-amine]
- IC50: ≤ 5 µM

Structure (SMILES): CNC(=O)CS(=O)(=O)c1nnc(Nc2c3c(cc4c2CCC4)CCC3)[nH]1 [Example 68, 2-((5-((1,2,3,5,6,7-hexahydro-s-indacen-4-yl)amino)-4H-1,2,4-triazol-3-yl)sulfonyl)-N-methylacetamide]
- IC50: ≤ 5 µM

Structure (SMILES): O=S(=O)(c1cccnc1)c1nnc(Nc2c3c(cc4c2CCC4)CCC3)[nH]1 [Example 177, N-(1,2,3,5,6,7-hexahydro-s-indacen-4-yl)-5-(pyridin-3-ylsulfonyl)-4H-1,2,4-triazol-3-amine]
- IC50: ≤ 5 µM

Structure (SMILES): CC(C)n1ncc(-c2ccncc2)c1Nc1nnc(S(=O)(=O)N2CCC(N(C)C)CC2)[nH]1 [Example 198, 1-((5-((1-isopropyl-4-(pyridin-4-yl)-1H-pyrazol-5-yl)amino)-4H-1,2,4-triazol-3-yl)sulfonyl)-N,N-dimethylpiperidin-4-amine]
- IC50: ≤ 10 µM

Structure (SMILES): Cc1ccc(S(=O)(=O)c2nnc(Nc3c4c(cc5c3CCC5)CCC4)[nH]2)cc1 [Example 182, N-(1,2,3,5,6,7-hexahydro-s-indacen-4-yl)-5-tosyl-4H-1,2,4-triazol-3-amine]
- IC50: ≤ 5 µM

Structure (SMILES): CC(c1cc(S(=O)(=O)c2nnc(Nc3c4c(cc5c3CCC5)CCC4)[nH]2)nn1C(C)C)N(C)C (centres unmarked) [Example 8, 5-((5-(1-(dimethylamino)ethyl)-1-isopropyl-1H-pyrazol-3-yl)sulfonyl)-N-(1,2,3,5,6,7-hexahydro-s-indacen-4-yl)-4H-1,2,4-triazol-3-amine]
- IC50: ≤ 1 µM

Structure (SMILES): CC(C)n1cc(S(=O)(=O)c2nnc(Nc3c4c(cc5c3CCC5)CCC4)[nH]2)cn1 [Example 338, N-(1,2,3,5,6,7-hexahydro-s-indacen-4-yl)-5-((1-isopropyl-1H-pyrazol-4-yl)sulfonyl)-4H-1,2,4-triazol-3-amine]
- IC50: ≤ 5 µM

Structure (SMILES): O=S(=O)(c1ccccc1)c1nnc(Nc2c(-c3ccncc3)ccc3c2CCC3)[nH]1 [Example 189, 5-(phenylsulfonyl)-N-(5-(pyridin-4-yl)-2,3-dihydro-1H-inden-4-yl)-4H-1,2,4-triazol-3-amine]
- IC50: ≤ 10 µM

Structure (SMILES): COC1(c2cc([S+]([O-])c3nnc(Nc4c5c(cc6c4CCC6)CCC5)[nH]3)nn2C(C)C)COC1 (centres unmarked) [Example 25, N-(1,2,3,5,6,7-hexahydro-s-indacen-4-yl)-5-((1-isopropyl-5-(3-methoxyoxetan-3-yl)-1H-pyrazol-3-yl)sulfinyl)-4H-1,2,4-triazol-3-amine]
- IC50: ≤ 10 µM

Structure (SMILES): O=S(=O)(c1cccc(F)c1)c1nnc(Nc2c3c(cc4c2CCC4)CCC3)[nH]1 [Example 178, 5-((3-fluorophenyl)sulfonyl)-N-(1,2,3,5,6,7-hexahydro-s-indacen-4-yl)-4H-1,2,4-triazol-3-amine]
- IC50: ≤ 5 µM
